One experiment relates to FaDu cells. The experiment can be described thus: Cell cycle and apoptosis analysis of FaDu cells (propidium staining, FACS). Format: cell-based, human. As to conditions: 6 days. As to the method: FaDu cells were maintained in MEM Eagle's media supplemented with 10% fetal bovine serum, 100 units/ml penicillin, 100 μg/mL streptomycin, 0.1 mM non essential amino acids and 1 mM sodium pyruvate. Cell survival was evaluated using the WST-1 assay (Kicska G A, long Li, Honig H, et al. Proc Natl Acad Sci USA 2001; 98:4593-98). Cells were seeded onto 96 well plates at a density of 10^4 cells per well, with either no additions, 1 μM compound (2), 20 μM MTA or 1 μM compound (2)+20 μM MTA, IC50 was determined following the manufacturer's protocol (Roche Applied Science, Ind.). Cells were grown and measured in triplicate or quadruplicate and the error bars show the mean±SD of the multiple samples.
FaDu cells were subjected to six days in culture using the same conditions described as for Example 4, before staining with propidium […] and FACS cell sorting analysis.

For experiment [1], the system named is TRAMP (transgenic adenocarcinoma of mouse prostate) mice. The experiment can be described thus: Treatment of TRAMP mice (tumour mass, metastasis, MRI, histology, polyamines). In kind it is in vivo. As to conditions: TRAMP mice, alone or in combination with MTA. On the procedure: MRI experiments were performed using a 9.4T 21 cm bore horizontal bore magnet (Magnex Scientific) Varian INOVA MRI system (Fremont, Calif.) equipped with a 28 mm inner diameter quadrature birdcage coil. Mice were anesthetized with isoflurane inhalation anesthesia (1-1.5% in 100% O2 administered via a nose cone) and positioned in the MRI coil. Body temperature was maintained (37-38° C.) using a homeothermic warming system. After acquiring scout images, multi-slice spin-echo imaging with an echo time of 18 ms and a repetition time of 400 ms ms was performed. A 40 mm field of view with a 256×256 matrix size was used. Nine to 15 slices along the transverse, sagittal, and coronal planes were acquired in each multi-slice experiment with a slice thickness of 1 mm and the gap between slices of 0.5 mm. MRI data were processed off-line with MATLAB-based MRI analysis software.
Spent media and perchloric acid extracts of both PC3 cells and tissue samples were subjected to purification via cation exchange chromatography and dansyl-derivatized with minor changes. Disposable 10 ml BIO-RAD columns were centrifuged at 4,000 rpm for 3 minutes. Sodium carbonate used for derivatization was adjusted to pH 9.3 and the concentration of dansyl-chloride was adjusted to 100 mM. Dansyl-polyamines were quantitated by a Waters HPLC/Fluorescence system. A Phenomenex Luna 5μ C18 column was used with a mobile phase of 30% acetonitrile in a 50 mM ammonium acetate buffer at pH 6.8 (eluent A) and 100% acetonitrile (eluent B). Fluorescence detection was monitored by excitation at 338 nm and emission at 500 nm.
Long-Term: Sterile solutions of 100 μM compound (2) (pH ˜6.4). Water bottles were autoclaved prior to filling with sterile inhibitor solutions. Water consumption was monitored every other day, with fresh inhibitor solution being administered to prevent bacterial growth. Mice were control-sacrificed and tissues (genitourinary system, liver, lungs) were collected for histology and polyamine analysis. Mass and dimensions of excised genitourinary system tumours were recorded. Sections of small intestine were also removed for toxicity analysis via H&E staining.

The subject of experiment [2] is mouse lung cancer cells (3LL). The experiment can be described thus: Mouse 3LL lung cancer cell culture study. Format: cell-based. As to the method:
Growth of 3LL and RM1 cells was in Dulbecco's modified Eagle's medium containing serum and antibiotics with 5 mM sodium pyruvate and 0.25 mM non essential amino acid mixture (Gibco). Compound (1) was added as a sterile solution and MTA was absent or present at 20 μM.

We go through three compounds from patent publication US8916571B2, “Methods of treating cancer using inhibitors of 5′-methylthioadenosine phosphorylase” (Albert Einstein College of Medicine of Yeshiva University, priority 2006, dated 2014).

Molecules are shown by their SMILES.

In the experiment on FaDu cells (single agent), `CSC[C@H]1O[C@@H](n2cnc3c(N)ncnc32)[C@H](O)[C@@H]1O` [MTA, methylthioadenosine] came in with an Apoptosis of 6.66%, a G1 of 79.67%, a G2 of 9.91% and an S of 10.42%.

In the experiment on FaDu cells (MTA+compound), `CSC[C@H]1N[C@@H](c2c[nH]c3c(N)ncnc23)C(O)C1O` (some centres unmarked) [compound (3)] had an Apoptosis of 29.41%, a G1 of 8.26%, a G2 of 60.49% and an S of 31.25%. Also, in the experiment on FaDu cells (single agent), the Apoptosis was determined as 7.89%, the G1 turned out to be 72.06% and the S came out at 17.98%. Also, the prostate cancer progression result in experiment [1] was “inhibits prostate cancer progression”.

Regarding `Nc1ncnc2c(CN3CC(O)[C@@H](CSCc4ccccc4)C3)c[nH]c12` (some centres unmarked) [compound (1)], the figures for the “response of mouse lung cancer cells in culture” value in experiment [2] (in the absence of MTA) and in experiment [2] (in the presence of 20 μM MTA) were “not responding” and “responding”, respectively.
